Experimental data from patent US9518000B2, “Bicyclo [2.2.1] acid GPR120 modulators” (BRISTOL-MYERS SQUIBB COMPANY, priority 2013, dated 2016).
pEC50: −log10 of the molar value.

Target: human GPR120 (Homo sapiens (Human), UniProt Q5NUL3)
Experiment: GPR120 pERK AlphaScreen SureFire Assay (human GPR120 pERK assay)
Assay type: cell-based
Details: CHOA12 or CHO-K1 cells stably transfected with the short form of human GPR120 receptor; phosphorylated ERK; read-out: EC50 values measured in the human GPR120 pERK assay
Description: GPR120 activity was monitored by measuring phosphorylation of ERK (pERK), since G protein receptors are known to activate the ERK signaling cascade either directly and/or through recruitment of arrestin that serves as a scaffold for downstream signaling events.
GPR120 pERK AlphaScreen SureFire Assay
The human and mouse GPR120-mediated intracellular phosphorylated ERK assays were established using CHOA12 cells stably transfected with the short form of human or mouse GPR120 receptor. Cells were cultured in growth medium consisting of F-12 media (Invitrogen Cat. #11765) with 5% Charcoal/Dextran FBS (Invitrogen Cat. #12676-029), 500 μg/mL GENETICIN® (Life Technologies Cat. #10131-027) and 250 μg/mL Zeocin (Invitrogen Cat. #R250-01). Cells were cryo preserved at a concentration of 2×10^7 cells/mL, in 90% Charcoal/Dextran FBS and 10% DMSO, and frozen in liquid nitrogen at a low passage number.
For the pERK assay, 2×10^7 cells/mL cryopreserved human and mouse cells were thawed rapidly in a 37° C. water bath and added to a T-225 flask containing 50 mL growth medium. The flasks were placed in a tissue culture incubator overnight (37° C., 5% CO2). The next day, cells were harvested with trypsin (Gibco Cat. #25300-054), resuspended in serum-containing growth medium and counted using a Cellometer and volume adjusted to a concentration of 0.6×10^6 cells/mL. Cells were plated into 384-well clear bottom tissue culture plates (BD Cat. #353962) at 50 μL/well, for a density of 30,000 cells/well using a MULTIDROP® and incubated for 16-18 hours (overnight) at 37° C. with 5% CO2. The next day, cells were serum starved in 30 μL of F-12 media without any serum or antibiotics for 2 hours at 37° C.
Test compounds were 3-fold, 11-point serially diluted in DMSO in a REMP assay plate (Matrix Cat. #4307) by Tecan and 5 μL was transferred into an ECHO source plate (LabCyte Cat. #LC-0200). Cells were then stimulated with 50 nL of compound dilutions using ECHO liquid handler for 7 minutes at 37° C. Compounds ranged from final assay concentrations of 33.33 μM to 0.56 nM.
The media was then dumped and cells lysed with 20 μL of 1× Lysis buffer from the AlphaScreen SureFire Phospho-ERK 1/2 Kit (Perkin Elmer Cat. #6760617M). The lysis buffer was diluted 5-fold with water before use. The plate was agitated on a shaker for 10 minutes after which 2 μL was transferred into a 384-well white proxiplate (Perkin Elmer Cat. #6008289). The SureFire assay reagent mix was prepared by mixing 60 parts Reaction Buffer, 10 parts Activation Buffer, 1 part Donor Beads, 1 part Acceptor Beads (Perkin Elmer Cat. #TGRES10K). 3.5 μL/well of this reagent mix was manually added to the proxiplate with a multichannel pipettor. Plates were spun down at 1000 rpm for 2 minutes, followed by light-protected incubation at room temperature for 2 hours. The plates were read on the Alpha-technology compatible Envision multilabel plate reader using AlphaScreen protocol according to manufacturer's specifications. The agonist effect of compounds was expressed as 100×(average sample-average blank)/(average total−average blank) where sample is the luminescence activity in the presence of test compound, blank is equal to the luminescence activity in the presence of DMSO control and the total is signal induced by 50 μM linolenic acid as reference compound. Activation data for the test compound over a range of concentrations was plotted as percentage activation of the test compound (100%=maximum response). After correcting for background, EC50 values were determined. The EC50 is defined as the concentration of test compound which produces 50% of the maximal response and was quantified using the 4 parameter logistic equation to fit the data.
The human and mouse GPR120-mediated intracellular phosphorylated ERK assays were also established using CHO-K1 cells stably transfected with the short form of human or mouse GPR120 receptor. […]

Sequence of human GPR120 (Q5NUL3 whole entry): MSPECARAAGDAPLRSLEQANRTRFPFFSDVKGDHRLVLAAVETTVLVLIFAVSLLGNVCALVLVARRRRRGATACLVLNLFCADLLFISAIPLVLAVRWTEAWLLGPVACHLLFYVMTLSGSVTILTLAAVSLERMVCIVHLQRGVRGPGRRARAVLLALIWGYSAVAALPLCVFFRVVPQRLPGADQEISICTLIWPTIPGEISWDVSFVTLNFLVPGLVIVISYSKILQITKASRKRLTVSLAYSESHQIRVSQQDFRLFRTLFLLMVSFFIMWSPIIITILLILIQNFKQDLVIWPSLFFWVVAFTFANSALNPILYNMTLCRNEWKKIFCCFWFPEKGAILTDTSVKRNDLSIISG

Row | Compound | pEC50
1 | CC(OC12CCC(COCC(=O)O)(CC1)C2)c1cc(F)cc(Oc2ccc(F)cc2)c1 (stereo not drawn) [Example 76, 2-((4-(1-(3-fluoro-5-(4-fluorophenoxy)phenyl)ethoxy)bicyclo[2.2.1]heptan-1-yl)methoxy)acetic acid] | 5.52
2 | O=C(O)CCC12CCC(OCCc3cccc4ccccc34)(CC1)C2 [Example 87, 3-(4-(2-(naphthalen-1-yl)ethoxy)bicyclo [2.2.1]heptan-1-yl) propanoic acid] | 5.88
3 | COc1cc(Cl)ccc1COC12CCC(CCCC(=O)O)(CC1)C2 [Example 40, 4-(4-(4-chloro-2-methoxybenzyl-oxy)bicyclo [2.2.1]heptan-1-yl)butanoic acid] | 5.64
4 | O=C(O)CCCC12CCC(OCc3cc(Cl)cc(Cl)c3)(CC1)C2 [Example 4, 4-(4-(3,5-dichloro-benzyloxy)bicyclo[2.2.1]heptan-1-yl) butanoic acid] | 6.19
5 | COc1ccc(F)c(COC23CCC(CCCC(=O)O)(CC2)C3)c1 [Example 2, 4-(4-(2-fluoro-5-methoxybenzyl-oxy)bicyclo [2.2.1]heptan-1-yl)butanoic acid] | 5.74
6 | O=C(O)CCC12CCC(OCCc3cc(OC(F)(F)F)ccc3F)(CC1)C2 [Example 89, 3-((1S,4R)-4-(2-fluoro-5-(trifluoromethoxy)phenethoxy)bicyclo [2.2.1]heptan-1-yl) propanoic acid] | 5.58
7 | COc1ccc(COC23CCC(CCCC(=O)O)(CC2)C3)c(F)c1 [Example 42, 4-(4-(2-fluoro-4-methoxybenzyl-oxy)bicyclo[2.2.1]heptan-1-yl) butanoic acid] | 5.04
8 | O=C(O)CCCC12CCC(OCc3ccccc3Cl)(CC1)C2 [Example 10, 4-(4-(2-chloro-benzyloxy)bicyclo[2.2.1]heptan-1-yl) butanoic acid] | 5.58
9 | 3-(4-(2-phenoxybenzyloxy) bicyclo[2.2.1]heptan-1-yloxy) propanoic acid [Example 80] | 5.56
10 | O=C(O)CCCC12CCC(OCc3ccc(Cl)c(Cl)c3)(CC1)C2 [Example 11, 4-(4-(3,4-dichlorobenzyl-oxy)bicyclo[2.2.1]heptan-1-yl) butanoic acid] | 5.96
11 | O=C(O)CCCC12CCC(OCc3cc([N+](=O)[O-])ccc3Cl)(CC1)C2 [Example 51, 4-(4-(2-chloro-5-nitrobenzyloxy)bicyclo[2.2.1]heptan-1-yl) butanoic acid] | 5.62
12 | O=C(O)COCC12CCC(OCc3ccccc3Oc3ccccc3)(CC1)C2 [Example 72, 2-((4-(2-Phenoxybenzyloxy)bicyclo[2.2.1]heptan-1-yl)methoxy)acetic acid] | 5.95
13 | 3-(4-(1-(3-fluoro-5-(4- fluorophenoxy)phenyl)ethoxy) bicyclo[2.2.1]heptan-1-yloxy) propanoic acid [Example 82] | 6.01
14 | O=C(O)CCC12CCC(OCc3cc(F)cc(Oc4ccccc4)c3)(CC1)C2 [Example 90, 3-(4-((3-fluoro-5-phenoxybenzyl)oxy)bicyclo [2.2.1]heptan-1-yl) propanoic acid] | 5.91
15 | COc1cc(COC23CCC(CCCC(=O)O)(CC2)C3)cc(OC)c1 [Example 21, 4-(4-(3,5-dimethoxybenzyl-oxy)bicyclo [2.2.1]heptan-1-yl)butanoic acid] | 5.72
16 | O=C(CCCC12CCC(OCc3cccc(Oc4ccccc4)c3)(CC1)C2)N1CC(O)C1 [Example 85, 1-(3-Hydroxyazetidin-1-yl)-4-(4-((3-phenoxybenzyl)oxy)bicyclo[2.2.1]heptan-1-yl)butan-1-one] | 5.62
17 | O=C(O)CCCC12CCC(OCc3c(F)ccc(F)c3F)(CC1)C2 [Example 47, 4-(4-(2,3,6-trifluorobenzyl-oxy)bicyclo [2.2.1]heptan-1-yl)butanoic acid] | 5.11
18 | O=C(O)CCCC12CCC(OCc3cccc(C(F)(F)F)c3)(CC1)C2 [Example 65, 4-(4-(3-(trifluoro-methyl)benzyloxy)bicyclo[2.2.1]heptan-1-yl) butanoic acid] | 5.90
19 | CNC(=O)CCCC12CCC(OCc3cccc(Oc4ccccc4)c3)(CC1)C2 [Example 84, N-Methyl-4-(4-((3-phenoxybenzyl)oxy)bicyclo[2.2.1]heptan-1-yl)butanamide] | 5.52

Continued, values first:

Row | pEC50 | Compound
20 | 6.21 | O=C(O)CCCC12CCC(OCc3c(Cl)ccc(Cl)c3Cl)(CC1)C2 [Example 59, 4-(4-(2,3,6-trichlorobenzyl-oxy)bicyclo [2.2.1]heptan-1-yl)butanoic acid]
21 | 6.46 | 3-(4-(3-fluoro-5-(4- fluorophenoxy)benzyloxy) bicyclo[2.2.1]heptan-1-yloxy) propanoic acid [Example 81]
22 | 6.19 | O=C(O)CCCC12CCC(OCc3cc(F)cc(C(F)(F)F)c3)(CC1)C2 [Example 25, 4-(4-(3-fluoro-5-(trifluoromethyl)benzyloxy)bicyclo[2.2.1]heptan-1-yl) butanoic acid]
23 | 6.55 | O=C(O)C1CC1CC12CCC(OCc3cc(F)cc(Oc4ccccc4)c3)(CC1)C2 (racemic) [Example 91, 2-((4-((3-Fluoro-5-phenoxybenzyl)oxy)bicyclo[2.2.1]heptan-1-yl)methyl)cyclopropanecarboxylic acid]
24 | 6.11 | O=C(O)CCCC12CCC(OCc3cccc(-c4ccccc4)c3)(CC1)C2 [Example 57, 4-(4-(biphenyl-3-ylmethoxy)bicyclo[2.2.1]heptan-1-yl) butanoic acid]
25 | 6.28 | O=C(O)CCCC12CCC(OCc3cc(Cl)ccc3OC(F)(F)F)(CC1)C2 [Example 19, 4-(4-(5-chloro-2-(trifluorometh-oxy)benzyloxy)bicyclo[2.2.1]heptan-1-yl) butanoic acid]
26 | 6.09 | Cc1ccc(Br)cc1COC12CCC(CCCC(=O)O)(CC1)C2 [Example 62, 4-(4-(5-bromo-2-methylbenzyl-oxy)bicyclo [2.2.1]heptan-1-yl)butanoic acid]
27 | 6.18 | O=C(O)CCCC12CCC(OCc3ccccc3SC(F)(F)F)(CC1)C2 [Example 49, 4-(4-(2-(trifluoro-methylthio)benzyloxy)bicyclo [2.2.1]heptan-1-yl)butanoic acid]
28 | 6.41 | O=C(O)CCCC12CCC(OCc3cc(F)cc(OC(F)(F)F)c3)(CC1)C2 [Example 28, 4-(4-(3-fluoro-5-(trifluorometh-oxy)benzyloxy)bicyclo[2.2.1]heptan-1-yl) butanoic acid]
29 | 6.06 | O=C(O)[C@@H]1C[C@H]1CC12CCC(OCc3cc(F)cc(Oc4ccccc4)c3)(CC1)C2 (single isomer, unassigned) [Example 93]
30 | 6.49 | O=C(O)CCCC12CCC(OCc3ccccc3-c3ccccc3)(CC1)C2 [Example 48, 4-(4-(biphenyl-2-ylmethoxy)bicyclo[2.2.1]heptan-1-yl) butanoic acid]
31 | 6.40 | CS(=O)(=O)NC(=O)CCCC12CCC(OCc3cc(F)ccc3Oc3ccccc3)(CC1)C2 [Example 83, 4-(4-(5-Fluoro-2-phenoxybenzyloxy)bicyclo[2.2.1]heptan-1-yl)-N-(methylsulfonyl) butanamide]
32 | 6.29 | O=C(O)C1CC1CC12CCC(OCc3cccc(Oc4ccccc4)c3)(CC1)C2 (stereo not drawn) [Example 95, 2-((4-((3-Phenoxybenzyl)oxy)bicyclo[2.2.1]heptan-1-yl)methyl)cyclopropanecarboxylic acid]
33 | 6.16 | O=C(O)CCCC12CCC(OCc3cc(Cl)ccc3F)(CC1)C2 [Example 52, 4-(4-(5-chloro-2-fluorobenzyl-oxy)bicyclo [2.2.1]heptan-1-yl)butanoic acid]
